Test results taken from US20220090096A1 (priority 2019, published 2022).

Tests used:
C. sporogenes = format: cell-based, Clostridium sporogenes; conditions: theophylline 0.1-10 mM supplemented at time zero
Procedure: For growth experiments, pre-cultures grown for 12 hours were diluted to a starting OD600 of 0.01 with fresh medium containing different concentrations of the inducer theophylline (0-10 mM). Because theophylline is dissolved in DMSO, appropriate quantities of DMSO were added to all the cultures to account for any effect DMSO might have on growth.

Clostridium sporogenes = format: in vitro ADME; conditions: 2 mM in TYG medium; up to 20 hours
Procedure: To analyse if C. sporogenes consumes theophylline, 12 hour cultures were diluted to a staring OD600 of 0.01. At an OD600 of ≈0.5 cultures were induced with 2 mM theophylline. 1 mL samples were taken immediately and then at 2, 4, 6, 8, 10 and 20 hours after supplementation of theophylline. Samples were centrifuged for 10 min and 10000×g. Supernatants were used to determine the concentration of theophylline using an Alliance HT 2795 HPLC (Waters corporation) coupled to a Micromass Quattro LC Mass Spectrometer (Waters Wilmslow) in positive mode from m/z 70 to 500 for all samples at a scan rate of 1 cycle/s and equipped with an electrospray source. The general parameters were as follows: capillary voltage 2000 V, sampling cone 30 V, source temperature 130° C., desolvation temperature 350° C., cone gas flow 64 L/h and desolvation gas flow 621 L/h.
Prior to ionization, chromatographic separation was achieved using a Supelco Ascentis Express HPLC column (100 mm×3 mm, 2.7 μM, Sigma Aldrich). The mobile phase consisted of (A) water with 0.1% v/v formic acid and (B) methanol with 0.1% v/v formic acid. […]
As requisite of a good inducer, it was ascertained that theophylline is not metabolized by Clostridium sporogenes. […] The concentration of theophylline was monitored by HPLC/MS (high-performance liquid chromatography-mass spectrometry) analysis of cell-free supernatant samples over time.

[1] = test system: catP reporter (Chloramphenicol Acetyl Transferase, CAT); format: cell-based, Clostridium sporogenes NCIMB 10696

Cn1c(=O)c2[nH]cnc2n(C)c1=O [theophylline]
concentrations resulting in a reduction of growth (C. sporogenes): higher than 5 mM
concentration of theophylline in cell-free supernatant over time (Clostridium sporogenes): remains constant
dose dependency of gene expression [1]: higher levels of gene expression
